Source: patent publication US10231453B2, “5-substituted imidazole derivatives” (BAYER CROPSCIENCE AKTIENGESELLSCHAFT, priority 2015, dated 2019)
Marks after values point to notes of the source that are not given here.

Legend:
Uromyces appendiculatus = assay: In vivo preventive test on Uromyces appendiculatus (bean rust), Examples G and R7; settings: 264 h, 500 ppm of active ingredient, bean, preventive spray, evaluated 11 days after inoculation, read-out: efficacy
[1] = Measurement of LogP values by HPLC on reversed phase columns (EEC directive 79/831 Annex V.A8); type: physicochemical; settings: for chromatographic logP: method [a]: LC-UV, acidic range, 0.1% formic acid in water and acetonitrile as eluent
Description: Measurement of Log P values was performed as outlined above.

Puccinia recondita = assay: In vivo preventive test on Puccinia recondita (brown rust on wheat), Examples C and R3; settings: Puccinia recondita, 264 h; 500 ppm of active ingredient; wheat, preventive spray, evaluated 11 days after inoculation; read-out: efficacy
Septoria tritici = assay: In vivo preventive test on Septoria tritici (leaf spot on wheat), Examples E, Q3 and R5; settings: Zymoseptoria tritici, 576 h, 500 ppm of active ingredient; wheat, preventive spray, evaluated 24 days after inoculation; read-out: efficacy
Sphaerotheca fuliginea = assay: In vivo preventive test on Sphaerotheca fuliginea (powdery mildew on cucurbits), Examples F and R6; settings: Podosphaera fuliginea, 360 h; 500 ppm of active ingredient; gherkin, preventive spray, evaluated 15 days after inoculation; read-out: efficacy
Pyrenophora teres = assay: In vivo preventive test on Pyrenophora teres (net blotch on barley), Examples D, Q2 and R4; settings: Pyrenophora teres, 336 h, read-out: Efficacy in %
[2] = Table 2, compounds of formula (XVII)

| Structure (SMILES) | pest or weed control at 500 ppm (Uromyces appendiculatus) | chromatographic logP ([1]; Table 1) | pest or weed control at 500 ppm (Puccinia recondita) | pest or weed control at 500 ppm (Septoria tritici) | pest or weed control at 500 ppm (Sphaerotheca fuliginea) | chromatographic logP [1, 2] | further results |
| --- | --- | --- | --- | --- | --- | --- | --- |
| Cc1cncn1CC(O)(Cc1cccnc1Cl)C1(Cl)CC1 (centres unmarked) [Example I-10] | 90 to 100% | 1.22 | 80 to 89% | – | – | – | – |
| N#Cc1cncn1CC(O)(C(F)c1ccccc1Cl)C1(Cl)CC1 (centres unmarked) [Example I-24] | 90 to 100% | 2.82 | 80 to 89% | 90 to 100% | 90 to 100% | – | – |
| OC(Cn1cncc1Cl)(C(F)c1ccccc1F)C1(Cl)CC1 (centres unmarked) [Example I-28] | 70 to 79% | 2.01 | 80 to 89% | 80 to 89% | 90 to 100% | – | – |
| COc1cncn1CC(O)(Cc1ccccc1F)C1(Cl)CC1 (centres unmarked) [Example I-35] | – | 1.67 | – | 90 to 100% | – | – | – |
| OC(Cc1ccccc1F)(Cn1cncc1C1CC1)C1(Cl)CC1 (centres unmarked) [Example I-37] | – | 1.86 | 80 to 89% | 90 to 100% | – | – | – |
| N#Cc1cncn1CC(O)(Cc1cc(Br)ncc1Br)C1(Cl)CC1 (centres unmarked) [Example I-47] | 90 to 100% | 2.73 | 80 to 89% | – | 90 to 100% | – | – |
| N#Cc1cncn1CC(O)(Cc1ccncc1Cl)C1(Cl)CC1 (centres unmarked) [Example I-57] | 90 to 100% | 1.88 | 90 to 100% | 90 to 100% | 90 to 100% | – | – |
| N#Cc1cncn1CC(O)(Cc1cc(Cl)cc(Cl)c1)C1(Cl)CC1 (centres unmarked) [Example I-58] | 90 to 100% | 3.55 | 80 to 89% | 80 to 89% | 90 to 100% | – | – |
| OC(Cc1ccnc(Cl)c1Cl)(Cn1cncc1Cl)C1(Cl)CC1 (centres unmarked) [Example I-67] | 90 to 100% | 2.08 | 80 to 89% | – | 90 to 100% | – | – |
| Cc1ccc(CC(O)(Cn2cncc2Cl)C2(Cl)CC2)c(C)c1 (centres unmarked) [Example I-68] | 90 to 100% | 2.69 | 70 to 79% | – | – | – | – |
| OC(Cc1cc(Cl)nc(Cl)c1)(Cn1cncc1Cl)C1(Cl)CC1 (centres unmarked) [Example I-74] | 90 to 100% | 2.23 | – | 90 to 100% | 90 to 100% | – | – |
| Nc1cncn1CC(O)(Cc1ccccc1Cl)C1(Cl)CC1 (centres unmarked) [Example I-78] | – | 1.5 | – | 80 to 89% | 80 to 89% | – | – |
| N#Cc1cncn1CC(O)(Cc1ccc(F)cc1)C1(F)CC1 (centres unmarked) [Example I-100] | – | 2.35 | – | – | – | – | – |
| CC1(C(O)(Cc2ccc(F)c(F)c2F)Cn2cncc2C#N)CC1 (centres unmarked) [Example I-102] | – | 2.82 | – | – | – | – | – |
| N#Cc1cncn1CC(O)(Cc1ccc(F)c(F)c1F)C1CCC1 (centres unmarked) [Example I-104] | 90 to 100% | 2.78 | 90 to 100% | 90 to 100% | 90 to 100% | – | – |
| CC(C)C(O)(Cc1ccc(F)c(F)c1F)Cn1cncc1C#N (centres unmarked) [Example I-105] | – | 2.78 | 70 to 79% | 70 to 79% | 90 to 100% | – | – |
| N#Cc1cncn1CC(O)(Cc1ccc(F)c(F)c1F)CC1CC1 (centres unmarked) [Example I-106] | 90 to 100% | 2.73 | 80 to 89% | 90 to 100% | 90 to 100% | – | – |
| NC(=O)c1cncn1CC(O)(Cc1ccc(Cl)cc1F)C1CC1 (centres unmarked) [Example I-116] | – | 1.49 | – | 90 to 100% | 90 to 100% | – | – |
| N#Cc1cncn1CC(O)(Cc1ccc(Cl)cc1F)C1CCC1 (centres unmarked) [Example I-117] | 90 to 100% | 3.31 | 90 to 100% | 90 to 100% | 90 to 100% | – | – |
| CCOC(Cc1ccc(Cl)cc1F)(Cn1cncc1Cl)C1(Cl)CC1 (centres unmarked) [Example I-122] | 90 to 100% | 3.1 | 80 to 89% | 90 to 100% | 90 to 100% | – | – |
| C=CCOC(Cc1ccc(Cl)cc1F)(Cn1cncc1Cl)C1(Cl)CC1 (centres unmarked) [Example I-123] | 80 to 89% | 3.31 | 80 to 89% | 90 to 100% | 90 to 100% | – | – |
| CCOC(=O)c1cncn1CC(O)(Cc1ccccc1F)C1(Cl)CC1 (centres unmarked) [Example I-135] | – | 2.73 | – | – | – | – | – |
| N#Cc1cncn1CC(O)(Cc1ccccc1F)CC1CC1 (centres unmarked) [Example I-141] | 90 to 100% | 2.45 | 90 to 100% | 90 to 100% | 90 to 100% | – | – |
| N#Cc1cncn1CC(O)(Cc1cccc(Cl)c1F)C1(Cl)CC1 (centres unmarked) [Example I-145] | – | 3.02 | – | – | – | – | – |
| N#Cc1cncn1CC(O)(Cc1ccc(F)cc1)C1(Cl)CCC1 (centres unmarked) [Example I-159] | – | 2.98 | – | – | – | – | – |
| N#Cc1cncn1CC(O)(Cc1ccc(F)cc1)C1CCC1 (centres unmarked) [Example I-160] | – | 2.56 | – | – | – | – | – |

| Structure (SMILES) | pest or weed control at 500 ppm (Uromyces appendiculatus) | chromatographic logP ([1]; Table 1) | pest or weed control at 500 ppm (Puccinia recondita) | pest or weed control at 500 ppm (Septoria tritici) | pest or weed control at 500 ppm (Sphaerotheca fuliginea) | chromatographic logP [1, 2] | further results |
| --- | --- | --- | --- | --- | --- | --- | --- |
| N#Cc1cncn1CC(O)(Cc1ccc(F)cc1)C1CCCC1 (centres unmarked) [Example I-161] | – | 2.82 | – | – | – | – | – |
| CC(C)C(O)(Cc1ccc(F)cc1)Cn1cncc1C#N (centres unmarked) [Example I-162] | – | 2.44 | – | – | – | – | – |
| N#Cc1cncn1CC(O)(Cc1ccncc1F)C1(Cl)CC1 (centres unmarked) [Example I-163] | – | 1.62 | – | – | – | – | – |
| N#Cc1cncn1CC(O)(Cc1ccnnc1Cl)C1(Cl)CC1 (centres unmarked) [Example I-168] | – | 1.59 | – | – | – | – | – |
| O=C(Cc1ccccc1)c1cncn1CC(O)(Cc1ccccc1)C1(Cl)CC1 (centres unmarked) [Example I-169] | 70 to 79% | 3.56 | 70 to 79% | 70 to 79% | 90 to 100% | – | – |
| O=C(Cn1cncc1Cl)C1(Cl)CC1 [XVII-1, 1-(1-chlorocyclopropyl)-2-(5-chloro-1H-imidazol-1-yl)ethanone] | – | – | – | – | – | 0.75 | – |
| N#Cc1cncn1CC(=O)C1(Cl)CC1 [XVII-2, 1-[2-(1-chlorocyclopropyl)-2-oxoethyl]-1H-imidazole-5-carbonitrile] | – | – | – | – | – | 1.35 | – |
| N#Cc1cncn1CC(=O)C1CC1 [XVII-3] | – | – | – | – | – | 0.74 | – |
| N#Cc1cncn1CC(=O)C1(F)CC1 [XVII-4] | – | – | – | – | – | 1.05 | – |
| O=C(Cn1cncc1F)C1(Cl)CC1 [XVII-5] | – | – | – | – | – | 0.32 | – |
| COC(=O)c1cncn1CC(=O)C1(Cl)CC1 [XVII-6] | – | – | – | – | – | 1.2 | – |
| CC(C)(C)C(=O)Cn1cncc1C#N [XVII-7] | – | – | – | – | – | 1.47 | – |
| CC(C)(Cl)C(=O)Cn1cncc1C#N [XVII-8] | – | – | – | – | – | – | LogP [1]: 1.65^[a] |
| N#Cc1cncn1CC(=O)C1(C#N)CC1 [XVII-9] | – | – | – | – | – | 0.9 | – |
| O=C(Cn1cncc1I)C1(Cl)CC1 [XVII-10] | – | – | – | – | – | 0.7 | – |
| CC(C)(F)C(=O)Cn1cncc1C#N [XVII-11] | – | – | – | – | – | 1.31 | – |
| N#Cc1cncn1CC(=O)CC1CC1 [XVII-12] | – | – | – | – | – | 1.27 | – |
| CC(C)(C)CC(=O)Cn1cncc1C#N [XVII-13] | – | – | – | – | – | 1.88 | – |
| CC(C)C(=O)Cn1cncc1C#N [XVII-14] | – | – | – | – | – | 1.14 | – |
| N#Cc1cncn1CC(=O)C1CCCC1 [XVII-15] | – | – | – | – | – | 1.57 | – |
| N#Cc1cncn1CC(=O)C1(F)CCCC1 [XVII-16] | – | – | – | – | – | 1.81 | – |
| N#Cc1cncn1CC(=O)C1CCC1 [XVII-17] | – | – | – | – | – | 1.26 | – |
| N#Cc1cncn1CC(=O)C1(Cl)CCC1 [XVII-18] | – | – | – | – | – | 1.86 | – |
| CCCCC(=O)Cn1cncc1C#N [XVII-19] | – | – | – | – | – | 1.6 | – |
| OC(Cc1ccccc1Cl)(Cn1cnc(Br)c1)C1(Cl)CC1 (centres unmarked) [drawing 106, reference compound] | – | – | – | – | – | – | pest or weed control at 100 ppm (Pyrenophora teres; Example R4, rate of application 100 ppm): 0%; pest or weed control at 500 ppm (Pyrenophora teres; Example R4, rate of application 500 ppm): 0% |
